Source: patent US7033829B2, “Method to inhibit cell growth using oligonucleotides” (Trustees of Boston University, priority 2000, dated 2006)

How the values were obtained:
Type in all cases: cell-based
[1] = test system: Cu/Zn superoxide dismutase; assay: Cu/Zn superoxide dismutase mRNA in fibroblasts; settings: 48 and 72 hours after treatment
[2] = test system: Human melanoma cell lines CRL 1424, Malma, Sk Mel 2, and Sk Mel 28; assay: Cell yield of human melanoma cell lines; settings: 100 μM; one week; any of four cell lines
Method: Human melanoma cell lines CRL 1424, Malma, Sk Mel 2, and Sk Mel 28 were obtained from the American Type Culture Collection (ATCC). The cell lines were maintained in DME+2% calf serum, and dosed with either water (diluent) with DME, or 100 μM T2 in DME. One week after dosage, cells were collected and counted by Coulter™ counter.

[3] = test system: UV-damaged CAT reporter plasmid in human fibroblasts; assay: Repair of UV-damaged CAT reporter plasmid in fibroblasts; settings: 100 μM for five days before transfection; plasmid 100 mJ/cm^2 UVB
Text: Expression of a UV-damaged reporter plasmid containing the bacterial chloramphenicol acetyltransferase (CAT) gene under the control of SV40 promoter and enhancer sequences was previously shown to detect decreased DNA repair capacity in human lymphocytes associated with aging and early-onset skin cancers. This reporter plasmid was used to measure the DNA repair capacity of normal neonatal human skin-derived fibroblasts and keratinocytes.
Keratinocytes from newborns were established as described (Stanulis-Praeger, B. M. and Gilchrest, B. A., J. Cell. Physiol. 139:116–124 (1989)) using a modification of the method of Rheinwald and Green (Gilchrest, B. A. et al., J. Invest. Dermatol. 101:666–672 (1993)). First-passage keratinocytes were maintained in a non-differentiating low Ca^2+ medium (K-Stim, Collaborative Biomedical Products, Bedford, Mass.). […] CAT enzyme activity was determined using the liquid scintillation counting protocol and components of the assay system kit. […] Protein concentration in the cell extracts was determined by the method of Bradford (Anal. Biochem. 72:248 […]). CAT activity was expressed as c.p.m./100 μg protein and is represented as percent activity of cells transfected with sham-irradiated, non-damaged, plasmid.

Substance: thymidine dinucleotide [pTpT]
- increase of Cu/Zn superoxide dismutase mRNA levels [1]: greater than 3 fold
- cell yields [2]: marked decreases in cell yields
- CAT activity relative to sham-irradiated transfected controls [3]: more than 50%
